Reference: patent publication US10301295B2, “Herbicidal compounds” (Syngenta Participations AG, priority 2014, dated 2019)
Like-named read-outs stand apart in the source and are kept apart here.

Columns and labels:
Assay type in all cases: in vivo
[1] = test system: Alopecurus myosuroides (ALOMY); assay: Glasshouse assay for herbicidal activity, pre-/post-emergence (percentage phytotoxicity); details: Rate 250 g/ha, 100%=total damage, 0%=no damage; for pest or weed control at 250 g/ha: Alopecurus myosuroides
Procedure: (§1) Seeds of a variety of monocotyledonous and dicotyledonous test plants are sown in standard soil in pots. The plants are cultivated for one day (for pre-emergence) or for about 12 days (for post-emergence) under controlled conditions in a glasshouse (warm climate species at 24/18° C., cool climate species at 20/16° C., both at day/night; 16 hours light; 65% humidity). The test plants are then grown on, in a glasshouse (greenhouse) under controlled conditions (warm climate species at 24/18° C., cool climate species at 20/16° C., both at day/night; 16 hours light; 65% humidity) and are watered twice daily. 15 days after application of the test herbicide (15DAA) (for post-emergence), and 20 days after application of the test herbicide (20DAA) (for pre-emergence), the test plants are evaluated visually, and an assessed percentage phytotoxicity score is given for each herbicidal application on each plant species (with 100%=total damage to plant; 0%=no damage to plant). The plant species tested are as follows: Alopecurus myosuroides (ALOMY), Avena fatua (AVEFA), Lolium perenne (LOLPE), Echinochloa crus-galli (ECHCG).

Avena fatua (AVEFA) = assay: as above; details: Rate 250 g/ha, 100%=total damage, 0%=no damage; for pest or weed control at 250 g/ha: Avena fatua
Procedure: as §1

Lolium perenne (LOLPE) = assay: as above; details: Rate 250 g/ha, 100%=total damage, 0%=no damage; for pest or weed control at 250 g/ha: Lolium perenne
Procedure: as §1

wheat = assay: Post-emergence herbicidal activity against cereal crops (wheat) +/- safener, crop selectivity; details: 100%=total damage to plant, 0%=no damage
Procedure: as §1, with “plant).” for “plant). The plant species tested are as follows: Alopecurus myosuroides (ALOMY), Avena fatua (AVEFA), Lolium perenne (LOLPE), Echinochloa crus-galli (ECHCG).”

[2] = test system: Echinochloa crus-galli (ECHCG); assay: Glasshouse assay for herbicidal activity, pre-/post-emergence (percentage phytotoxicity); details: Rate 250 g/ha, 100%=total damage, 0%=no damage; for pest or weed control at 250 g/ha: Echinochloa crus-galli
Procedure: as §1

[3] = post-emergence, visual assessment 15 DAA
[4] = pre-emergence, visual assessment 20 DAA
[5] = 360 h, post-emergence, visual assessment 15 DAA, read-out: Post-emergence herbicidal activity (percentage phytotoxicity), ALOMY POST
[6] = 480 h, pre-emergence, visual assessment 20 DAA, read-out: Pre-emergence herbicidal activity (percentage phytotoxicity), ALOMY PRE
[7] = post-emergence, 360 h, post-emergence, visual assessment 15 DAA, read-out: Post-emergence herbicidal activity (percentage phytotoxicity), AVEFA POST
[8] = pre-emergence, 480 h, pre-emergence, visual assessment 20 DAA, read-out: Pre-emergence herbicidal activity (percentage phytotoxicity), AVEFA PRE
[9] = post-emergence, 360 h, post-emergence, visual assessment 15 DAA, read-out: Post-emergence herbicidal activity (percentage phytotoxicity), ECHCG POST
[10] = pre-emergence, 480 h, pre-emergence, visual assessment 20 DAA, read-out: Pre-emergence herbicidal activity (percentage phytotoxicity), ECHCG PRE
[11] = post-emergence, 360 h, post-emergence, visual assessment 15 DAA, read-out: Post-emergence herbicidal activity (percentage phytotoxicity), LOLPE POST
[12] = pre-emergence, 480 h, pre-emergence, visual assessment 20 DAA, read-out: Pre-emergence herbicidal activity (percentage phytotoxicity), LOLPE PRE

SMILES | Post-emergence herbicidal activity (percentage phytotoxicity), ALOMY POST [1, 3] [%] | Pre-emergence herbicidal activity (percentage phytotoxicity), AVEFA PRE (Avena fatua (AVEFA); [4]) [%] | Post-emergence herbicidal activity (percentage phytotoxicity), LOLPE POST (Lolium perenne (LOLPE); [3]) [%] | Pre-emergence herbicidal activity (percentage phytotoxicity), LOLPE PRE (Lolium perenne (LOLPE); [4]) [%] | Post-emergence herbicidal activity against wheat (percentage phytotoxicity), +CQC (wheat; 250 g/ha, plus safener cloquintocet-mexyl (CQC) applied at 50 g/ha) [%] | percent phytotoxicity (crop damage) to wheat at 250 g/ha (wheat; Triticum aestivum, 360 h, without safener, read-out: Post-emergence herbicidal activity against wheat (percentage phytotoxicity), Wheat - CQC) [%] | pest or weed control at 250 g/ha [1, 5] [%] | pest or weed control at 250 g/ha [1, 6] [%] | pest or weed control at 250 g/ha (Avena fatua (AVEFA); [7]) [%] | pest or weed control at 250 g/ha (Avena fatua (AVEFA); [8]) [%] | pest or weed control at 250 g/ha [2, 9] [%] | pest or weed control at 250 g/ha [2, 10] [%] | pest or weed control at 250 g/ha (Lolium perenne (LOLPE); [11]) [%] | pest or weed control at 250 g/ha (Lolium perenne (LOLPE); [12]) [%] | Pre-emergence herbicidal activity (percentage phytotoxicity), ALOMY PRE [1, 4] [%] | Post-emergence herbicidal activity (percentage phytotoxicity), AVEFA POST (Avena fatua (AVEFA); [3]) [%] | Post-emergence herbicidal activity (percentage phytotoxicity), ECHCG POST [2, 3] [%] | Pre-emergence herbicidal activity (percentage phytotoxicity), ECHCG PRE [2, 4] [%]
Cc1cc(C)c(C2C(=O)CC(CCN(C)C(=O)Nc3ccccn3)C2=O)c(C)c1 (centres unmarked) [Compound A17] | 70 | 0 | 40 | 30 | 10 | 50 | – | – | – | – | – | – | – | – | – | – | – | –
Cc1cc(C)c(C2C(=O)CC(CCNc3ncc(F)cn3)C2=O)c(C)c1 (centres unmarked) [Compound A121] | – | – | – | – | – | – | 100 | 100 | 100 | 100 | 100 | 100 | 90 | 100 | – | – | – | –
Cc1cc(C)c(C2C(=O)C[C@@H](CCNC(=O)C3=NOC(C)(C)C3)C2=O)c(C)c1 (some centres unmarked) [Compound A102] | – | – | – | – | – | – | 100 | 100 | 100 | 90 | 100 | 100 | 100 | 100 | – | – | – | –
Cc1cc(C)c(C2C(=O)CC(CCNc3ncccc3C#N)C2=O)c(C)c1 (centres unmarked) [Compound A124] | – | – | – | – | – | – | 80 | 60 | 60 | 40 | 100 | 90 | 80 | 80 | – | – | – | –
Cc1cc(-n2cc(Cl)cn2)cc(C)c1C1C(=O)CC(CCNc2ncc(C(F)(F)F)cc2F)C1=O (centres unmarked) [Compound A98] | – | – | – | – | – | – | 90 | 40 | 100 | 70 | 100 | 90 | 90 | 90 | – | – | – | –
Cc1cc(-n2cc(Cl)cn2)cc(C)c1C1C(=O)CC(CCNc2ccc(C(F)(F)F)cn2)C1=O (centres unmarked) [Compound A100] | – | – | – | – | – | – | 90 | 60 | 100 | 50 | 100 | 90 | 100 | 70 | – | – | – | –
Cc1cc(-c2ncc(F)cn2)cc(C)c1C1C(=O)CC(CCNc2ccc(C(F)(F)F)cn2)C1=O (centres unmarked) [Compound A120] | – | – | – | – | – | – | 90 | 90 | 100 | 90 | 100 | 90 | 90 | 90 | – | – | – | –
C=Cc1cc(C)cc(C)c1C1C(=O)CC(CCNC(=O)C2=NOC(C)(C)C2)C1=O (racemic) [Compound A122, N-[2-[3-(2,4-dimethyl-6-vinyl-phenyl)-2,4-dioxo-cyclopentyl]ethyl]-5,5-dimethyl-4H-isoxazole-3-carboxamide] | – | – | – | – | – | – | 90 | 0 | 90 | 0 | 90 | 0 | 80 | 0 | – | – | – | –
Cc1cc(C)c(C2C(=O)CC(CCNc3ccc(C#N)cn3)C2=O)c(C)c1 (centres unmarked) [Compound A107] | – | – | – | – | – | – | 100 | 90 | 100 | 90 | 100 | 100 | 100 | 100 | – | – | – | –
Cc1cc(C)c(C2C(=O)CC(CCNC(=O)Nc3ccc(F)cn3)C2=O)c(C)c1.Cl (centres unmarked) [Compound A93] | 90 | 70 | 70 | 90 | – | – | – | – | – | – | – | – | – | – | 90 | 90 | 100 | 90
Cc1cc(C)c(C2C(=O)CC(CCNc3ccc([N+](=O)[O-])cc3)C2=O)c(C)c1 (centres unmarked) [Compound A105] | – | – | – | – | – | – | 90 | 20 | 80 | 20 | 90 | 10 | 80 | 20 | – | – | – | –
Cc1cc(C)c(C2C(=O)CC(CCNC(=O)Nc3ccncn3)C2=O)c(C)c1 (centres unmarked) [Compound A95] | – | – | – | – | – | – | 70 | 80 | 70 | 20 | 70 | 70 | 60 | 70 | – | – | – | –
Cc1cc(C)c(C2C(=O)CC(CCNc3ccc([N+](=O)[O-])cc3C(F)(F)F)C2=O)c(C)c1 (centres unmarked) [Compound A104] | – | – | – | – | – | – | 90 | 60 | 80 | 70 | 70 | 90 | 90 | 80 | – | – | – | –
Cc1cc(-c2ncc(Br)cn2)cc(C)c1C1C(=O)CC(CCNC(=O)C2=NOC(C)(C)C2)C1=O (centres unmarked) [Compound A116] | – | – | – | – | – | – | 100 | 90 | 100 | 90 | 100 | 90 | 100 | 90 | – | – | – | –
Cc1cc(OCC(F)(F)F)cc(C)c1C1C(=O)CC(CCNC(=O)C2=NOC(C)(C)C2)C1=O (centres unmarked) [Compound A115] | – | – | – | – | – | – | 100 | 100 | 100 | 80 | 100 | 70 | 90 | 90 | – | – | – | –
CC#Cc1cc(C)c(C2C(=O)CC(CCNc3ccc(C#N)cn3)C2=O)c(C)c1 (centres unmarked) [Compound A112] | – | – | – | – | – | – | 100 | 100 | 100 | 90 | 100 | 100 | 100 | 90 | – | – | – | –
CC#Cc1cc(C)c(C2C(=O)CC(CCNC(=O)Nc3ccccn3)C2=O)c(C)c1 (centres unmarked) [Compound A92] | – | – | – | – | – | – | 90 | 70 | 100 | 30 | 100 | 80 | 100 | 70 | – | – | – | –
